Source: paper PMC6199744, “Development of Chemical Proteomics for the Folateome and Analysis of the Kinetoplastid Folateome” (ACS Infectious Diseases, 2018)
Read-outs that look alike come from different tables or passages of the source.

Assays:
Type in all cases: binding
[1] = molecular target: T1, HeLa cell extract proteins (Homo sapiens, UniProt O14818)
T1 construct: endogenous in cells; host or cells: HeLa cell extract
T1 sequence (O14818 1-248): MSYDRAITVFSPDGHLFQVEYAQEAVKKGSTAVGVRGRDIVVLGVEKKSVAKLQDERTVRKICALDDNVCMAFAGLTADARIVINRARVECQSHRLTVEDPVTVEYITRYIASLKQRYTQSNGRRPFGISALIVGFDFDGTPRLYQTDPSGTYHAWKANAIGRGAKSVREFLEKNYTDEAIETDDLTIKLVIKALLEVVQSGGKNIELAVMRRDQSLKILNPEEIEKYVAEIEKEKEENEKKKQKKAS

[2] = molecular target: T2, HeLa cell extract proteins (Homo sapiens, UniProt P35637)
T2 construct: endogenous in cells; host or cells: HeLa cell extract
T2 sequence (P35637 1-526): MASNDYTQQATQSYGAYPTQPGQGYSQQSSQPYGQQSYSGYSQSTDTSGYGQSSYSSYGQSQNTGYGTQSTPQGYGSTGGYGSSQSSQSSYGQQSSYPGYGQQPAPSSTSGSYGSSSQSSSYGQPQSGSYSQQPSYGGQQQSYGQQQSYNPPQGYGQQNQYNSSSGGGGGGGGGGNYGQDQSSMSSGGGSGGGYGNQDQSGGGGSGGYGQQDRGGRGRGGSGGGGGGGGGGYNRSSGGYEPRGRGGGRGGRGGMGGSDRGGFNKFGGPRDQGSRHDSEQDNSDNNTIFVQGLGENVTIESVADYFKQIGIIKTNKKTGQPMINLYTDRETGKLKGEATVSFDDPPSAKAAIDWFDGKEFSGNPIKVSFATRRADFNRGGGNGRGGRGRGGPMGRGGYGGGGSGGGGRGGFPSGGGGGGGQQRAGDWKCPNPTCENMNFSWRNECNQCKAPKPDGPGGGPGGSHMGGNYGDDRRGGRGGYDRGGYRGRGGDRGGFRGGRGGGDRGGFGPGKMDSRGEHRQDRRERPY

[3] = molecular target: T3, HeLa cell extract proteins (Homo sapiens, UniProt P48047)
T3 construct: endogenous in cells; host or cells: HeLa cell extract
T3 sequence (P48047 24-213): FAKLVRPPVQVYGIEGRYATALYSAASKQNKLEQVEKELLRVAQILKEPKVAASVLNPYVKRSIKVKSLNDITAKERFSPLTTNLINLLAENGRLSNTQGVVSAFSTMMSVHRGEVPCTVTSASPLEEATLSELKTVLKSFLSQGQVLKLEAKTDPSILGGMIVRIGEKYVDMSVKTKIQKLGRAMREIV

[4] = molecular target: T4, HeLa cell extract proteins (Homo sapiens, UniProt P57678)
T4 construct: endogenous in cells; host or cells: HeLa cell extract
T4 sequence (P57678 1-1058): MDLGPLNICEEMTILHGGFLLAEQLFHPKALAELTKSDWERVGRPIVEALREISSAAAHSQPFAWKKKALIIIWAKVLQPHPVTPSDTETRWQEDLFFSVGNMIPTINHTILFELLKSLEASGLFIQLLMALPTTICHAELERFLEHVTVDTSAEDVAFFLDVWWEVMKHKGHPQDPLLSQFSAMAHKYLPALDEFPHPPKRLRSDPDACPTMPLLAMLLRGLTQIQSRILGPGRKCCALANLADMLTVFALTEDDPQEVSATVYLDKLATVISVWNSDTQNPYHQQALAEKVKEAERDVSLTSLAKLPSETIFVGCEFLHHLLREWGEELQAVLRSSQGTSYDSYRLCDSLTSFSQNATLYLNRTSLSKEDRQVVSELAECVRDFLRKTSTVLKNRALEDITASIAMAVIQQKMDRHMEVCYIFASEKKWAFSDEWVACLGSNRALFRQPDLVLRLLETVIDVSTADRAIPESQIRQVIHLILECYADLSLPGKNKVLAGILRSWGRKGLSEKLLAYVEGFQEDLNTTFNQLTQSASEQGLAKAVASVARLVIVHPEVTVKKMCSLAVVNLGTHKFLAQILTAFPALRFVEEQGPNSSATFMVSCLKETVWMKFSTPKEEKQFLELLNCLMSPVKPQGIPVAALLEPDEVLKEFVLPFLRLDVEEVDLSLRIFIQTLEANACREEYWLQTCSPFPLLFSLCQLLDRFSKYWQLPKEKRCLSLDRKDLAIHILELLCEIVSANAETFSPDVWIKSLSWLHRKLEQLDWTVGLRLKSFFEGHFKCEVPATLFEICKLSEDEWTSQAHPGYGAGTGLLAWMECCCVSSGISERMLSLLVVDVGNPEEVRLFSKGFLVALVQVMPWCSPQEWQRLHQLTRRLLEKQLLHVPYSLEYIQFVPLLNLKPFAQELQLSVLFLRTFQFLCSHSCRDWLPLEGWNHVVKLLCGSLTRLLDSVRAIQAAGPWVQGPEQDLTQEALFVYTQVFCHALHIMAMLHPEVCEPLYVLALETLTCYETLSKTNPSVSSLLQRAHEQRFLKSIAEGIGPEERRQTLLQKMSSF

[5] = molecular target: T5, HeLa cell extract proteins (Homo sapiens, UniProt Q15907)
T5 construct: endogenous in cells; host or cells: HeLa cell extract
T5 sequence (Q15907 1-218): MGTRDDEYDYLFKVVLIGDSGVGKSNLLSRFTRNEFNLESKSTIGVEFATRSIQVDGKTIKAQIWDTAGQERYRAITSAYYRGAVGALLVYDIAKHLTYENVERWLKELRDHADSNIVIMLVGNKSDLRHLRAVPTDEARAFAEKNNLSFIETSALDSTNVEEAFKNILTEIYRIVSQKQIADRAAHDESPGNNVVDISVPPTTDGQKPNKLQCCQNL

[6] = molecular target: T6, HeLa cell extract proteins (Homo sapiens, UniProt Q9HCC0)
T6 construct: endogenous in cells; host or cells: HeLa cell extract
T6 sequence (Q9HCC0 23-563): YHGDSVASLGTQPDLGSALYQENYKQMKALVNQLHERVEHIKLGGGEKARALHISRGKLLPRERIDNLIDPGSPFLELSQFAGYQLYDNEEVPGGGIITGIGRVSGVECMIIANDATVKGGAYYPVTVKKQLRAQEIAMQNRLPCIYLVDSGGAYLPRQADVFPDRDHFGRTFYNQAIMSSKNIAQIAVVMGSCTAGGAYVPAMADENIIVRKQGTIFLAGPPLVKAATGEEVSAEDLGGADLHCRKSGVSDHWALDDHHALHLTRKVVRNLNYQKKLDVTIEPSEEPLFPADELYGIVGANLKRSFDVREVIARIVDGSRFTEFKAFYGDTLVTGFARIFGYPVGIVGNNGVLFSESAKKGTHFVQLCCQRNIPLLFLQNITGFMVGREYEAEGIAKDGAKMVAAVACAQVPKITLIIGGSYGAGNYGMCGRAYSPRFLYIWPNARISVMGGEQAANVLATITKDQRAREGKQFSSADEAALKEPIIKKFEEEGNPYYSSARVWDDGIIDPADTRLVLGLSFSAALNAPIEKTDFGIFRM

[7] = HeLa, protein FUS (FUS-LIKE PROTEIN (FRAGMENT))

Nc1nc2cccc(-c3ccccc3)c2n1Cc1ccc(Cl)c(Cl)c1 [compound 3]
fold changes relative to vehicle control ([1]; protein PSMA7, HeLa): 1.07
fold changes relative to vehicle control ([2]; protein FUS, HeLa): 1.02
fold changes relative to vehicle control ([3]; protein ATP5O, HeLa): 0.9
fold changes relative to vehicle control ([4]; captured protein GEMIN4, HeLa): 1.02
fold changes relative to vehicle control ([5]; protein RAB11B, HeLa): 0.97
fold changes relative to vehicle control ([6]; captured protein MCCC2, HeLa): 0.86

Nc1nc2[nH]cc(CCc3ccc(C(=O)N[C@@H](CCC(=O)O)C(=O)O)cc3)c2c(=O)[nH]1 [PTX, pemetrexed]
fold changes relative to vehicle control [1]: 1.03
fold changes relative to vehicle control [2]: 1.03
fold changes relative to vehicle control [3]: 1.01
fold changes relative to vehicle control [4]: 0.94
fold changes relative to vehicle control [5]: 0.94
fold changes relative to vehicle control [6]: 0.87

Nc1nc2c(c(=O)[nH]1)N(C=O)C(CNc1ccc(C(=O)N[C@@H](CCC(=O)O)C(=O)O)cc1)CN2 (stereo partly drawn) [LEU, leucovorin]
fold changes relative to vehicle control ([1]; HeLa, captured protein PSMA7): 1.08
fold changes relative to vehicle control [2, 7]: 1.06
fold changes relative to vehicle control ([3]; HeLa, captured protein ATP5O): 1.01
fold changes relative to vehicle control ([4]; HeLa, protein GEMIN4): 0.93
fold changes relative to vehicle control ([5]; HeLa, protein RAB11B): 0.87
fold changes relative to vehicle control ([6]; HeLa, protein MCCC2): 0.94

CCCCCCOc1cccc(Cc2cnc(N)nc2N)c1 [compound 2]
fold changes relative to vehicle control ([1]; protein PSMA7, HeLa): 1.3
fold changes relative to vehicle control ([2]; protein FUS, HeLa): 1.21
fold changes relative to vehicle control ([3]; protein ATP5O, HeLa): 0.98
fold changes relative to vehicle control ([4]; captured protein GEMIN4, HeLa): 0.92
fold changes relative to vehicle control ([5]; protein RAB11B, HeLa): 1.44
fold changes relative to vehicle control ([6]; captured protein MCCC2, HeLa): 1.08

NCCOCCOCC(=O)Nc1nc2ncc(CNc3ccc(C(=O)NC(CCC(=O)O)C(=O)O)cc3)nc2c(=O)[nH]1 (stereo not drawn) [compound 6]
fold changes relative to vehicle control ([1]; HeLa, captured protein PSMA7): 1.02
fold changes relative to vehicle control [2, 7]: 1.09
fold changes relative to vehicle control ([3]; HeLa, captured protein ATP5O): 0.97
fold changes relative to vehicle control ([4]; HeLa, protein GEMIN4): 1.02
fold changes relative to vehicle control ([5]; HeLa, protein RAB11B): 1.14
fold changes relative to vehicle control ([6]; HeLa, protein MCCC2): 1

CCCCCCOc1ccc(Cc2cnc(N)nc2N)cc1 [compound 1]
fold changes relative to vehicle control ([1]; protein PSMA7, HeLa): 1.13
fold changes relative to vehicle control ([2]; protein FUS, HeLa): 1.05
fold changes relative to vehicle control ([3]; protein ATP5O, HeLa): 0.98
fold changes relative to vehicle control ([4]; captured protein GEMIN4, HeLa): 0.88
fold changes relative to vehicle control ([5]; protein RAB11B, HeLa): 1.02
fold changes relative to vehicle control ([6]; captured protein MCCC2, HeLa): 0.78

NCCCNc1ccc(C(=O)NC(CCC(=O)O)C(=O)O)cc1 (stereo not drawn) [compound 7]
fold changes relative to vehicle control ([1]; HeLa, captured protein PSMA7): 0.93
fold changes relative to vehicle control [2, 7]: 1.25
fold changes relative to vehicle control ([3]; HeLa, captured protein ATP5O): 1.02
fold changes relative to vehicle control ([4]; HeLa, protein GEMIN4): 0.99
fold changes relative to vehicle control ([5]; HeLa, protein RAB11B): 0.84
fold changes relative to vehicle control ([6]; HeLa, protein MCCC2): 1
